Source: patent US4791118A, “Quinolonecarboxylic acid derivatives and their preparation” (Kyorin Pharmaceutical Co., Ltd., priority 1985, dated 1988)
In brackets after ≈: the same amount, converted by molar mass. Like-named read-outs stand apart in the source and are kept apart here.

Columns and labels:
gram-negative bacteria = conditions: than that of the prior compounds (e.g. norfloxacin, ciprofloxacin); cited from earlier work
gram-positive bacteria = conditions: cited from earlier work
E. coli ATCC 10536 = test: MIC, aerobic bacteria; format: cell-based; conditions: Escherichia coli, ATCC10536, Gram -, 10^6 cells/ml
From the text: (§1) | Organism (10^6 cells/ml)

[1] = system: Escherichia coli NIHJ JC-2; test: MIC, aerobic bacteria; format: cell-based; conditions: NIHJJC2, Gram -, 10^6 cells/ml
From the text: as §1

[2] = system: Acinetobacter anitratus IID 876; test: MIC, aerobic bacteria; format: cell-based; conditions: Acinetobacter calcoaceticus, IID876, Gram -, 10^6 cells/ml
From the text: as §1

S. epidermidis IID 866 = test: MIC, aerobic bacteria; format: cell-based; conditions: Staphylococcus epidermidis, IID866, Gram +, 10^6 cells/ml
From the text: as §1

[3] = system: Citrobacter freundii IID 976; test: MIC, aerobic bacteria; format: cell-based; conditions: IID976, Gram -, 10^6 cells/ml
From the text: as §1

P. mirabilis IID 992 = test: MIC, aerobic bacteria; format: cell-based; conditions: Proteus mirabilis, IID992, Gram -, 10^6 cells/ml
From the text: as §1

[4] = system: Klebsiella pneumoniae KY(GN)6445; test: MIC, aerobic bacteria; format: cell-based; conditions: Gram -, 10^6 cells/ml
From the text: as §1

[5] = system: S. aureus IID 670 (Terajima); test: MIC, aerobic bacteria; format: cell-based; conditions: Staphylococcus aureus, IID670, Gram +, 10^6 cells/ml
From the text: as §1

[6] = system: Proteus vulgaris IFO 3167; test: MIC, aerobic bacteria; format: cell-based; conditions: IFO3167, Gram -, 10^6 cells/ml
From the text: as §1

[7] = system: Serratia marcescens IID 618; test: MIC, aerobic bacteria; format: cell-based; conditions: IID618, Gram -, 10^6 cells/ml
From the text: as §1

[8] = system: Morganella morganii IID 602; test: MIC, aerobic bacteria; format: cell-based; conditions: IID602, Gram -, 10^6 cells/ml
From the text: as §1

[9] = system: Salmonella enteritidis IID 604; test: microbe, parasite or virus in culture; conditions: Salmonella enterica
[10] = system: Alcaligenes faecalis 0114002; test: MIC, aerobic bacteria
S. aureus Smith = test: microbe, parasite or virus in culture; conditions: Staphylococcus aureus
[11] = system: Pseudomonas aeruginosa V-1; test: MIC, aerobic bacteria; conditions: V1
[12] = system: Veillonella parvula KYA 10790; test: MIC, anaerobic bacteria; format: cell-based; conditions: KYA10790, Gram -, 10^6 cells/ml
From the text: as §1

[13] = system: Fusobacterium mortiferum 4249; test: MIC, anaerobic bacteria; format: cell-based; conditions: Gram -, 10^6 cells/ml
From the text: as §1

B. fragilis 25285 = test: MIC, anaerobic bacteria; format: cell-based; conditions: Bacteroides fragilis, Gram -, 10^6 cells/ml
From the text: as §1

B. distasonis 8503 = test: MIC, anaerobic bacteria; format: cell-based; conditions: Parabacteroides distasonis, Gram -, 10^6 cells/ml
From the text: as §1

B. fragilis 0558 = test: MIC, anaerobic bacteria; format: cell-based; conditions: Bacteroides fragilis, Gram -, 10^6 cells/ml
From the text: as §1

Pst. micros UPI 5464-1 = test: MIC, anaerobic bacteria; format: cell-based; conditions: Parvimonas micra, UPI54641, Gram +, 10^6 cells/ml
From the text: as §1

[14] = system: Bacteroides fragilis GM 7000; test: MIC, anaerobic bacteria; format: cell-based; conditions: GM7000, Gram -, 10^6 cells/ml
From the text: as §1

B. vulgatus KYA 29327 = test: MIC, anaerobic bacteria; format: cell-based; conditions: Phocaeicola vulgatus, KYA29327, Gram -, 10^6 cells/ml
From the text: as §1

[15] = system: Yersinia enterocolitica IID 981; test: microbe, parasite or virus in culture; conditions: IID981
C. ramosum = test: MIC, anaerobic bacteria; conditions: Thomasclavelia ramosa
[16] = system: Staphylococcus aureus 209 P; test: microbe, parasite or virus in culture
K. pneumoniae 1-220S = test: microbe, parasite or virus in culture; conditions: Klebsiella pneumoniae, 1220S
[17] = system: Eubacterium limosum KYA 8486; test: MIC, anaerobic bacteria; conditions: KYA8486
[18] = system: Bacillus subtilis PCI 219; test: microbe, parasite or virus in culture; conditions: PCI219

CCNCC1CCN(c2c(F)cc3c(=O)c(C(=O)O)cn(CC)c3c2F)C1 (centres unmarked) [CI-934]
activity against gram-negative bacteria (gram-negative bacteria): weaker activity
activity against gram-positive bacteria (gram-positive bacteria; prior drugs, e.g. CI-934): relatively strong activity

O=C(O)c1cn(C2CC2)c2cc(N3CCNCC3)c(F)cc2c1=O [CPFX, ciprofloxacin, reference compound]
MIC (E. coli ATCC 10536): 0.025 µg/mL (≈ 0.0754 µM)
MIC [1]: ≤ 0.0063 µg/mL
MIC [2]: 0.2 µg/mL (≈ 0.604 µM)
MIC (S. epidermidis IID 866): 0.1 µg/mL (≈ 0.302 µM)
MIC [3]: 0.025 µg/mL (≈ 0.0754 µM)
MIC (P. mirabilis IID 992): 0.025 µg/mL (≈ 0.0754 µM)
MIC [4]: 0.025 µg/mL (≈ 0.0754 µM)
MIC [5]: 0.1 µg/mL (≈ 0.302 µM)
MIC [6]: 0.025 µg/mL (≈ 0.0754 µM)
MIC [7]: 0.05 µg/mL (≈ 0.151 µM)
MIC [8]: 0.05 µg/mL (≈ 0.151 µM)
MIC [9]: 0.025 µg/mL (≈ 0.0754 µM)
MIC [10]: 0.2 µg/mL (≈ 0.604 µM)
MIC (S. aureus Smith): 0.2 µg/mL (≈ 0.604 µM)
MIC [11]: 0.05 µg/mL (≈ 0.151 µM)
MIC [12]: 0.2 µg/mL (≈ 0.604 µM)
MIC [13]: 3.13 µg/mL (≈ 9.45 µM)
MIC (B. fragilis 25285): 6.25 µg/mL (≈ 18.9 µM)
MIC (B. distasonis 8503): 6.25 µg/mL (≈ 18.9 µM)
MIC (B. fragilis 0558): 3.13 µg/mL (≈ 9.45 µM)
MIC (Pst. micros UPI 5464-1): 0.2 µg/mL (≈ 0.604 µM)
MIC [14]: 6.25 µg/mL (≈ 18.9 µM)
MIC (B. vulgatus KYA 29327): 25 µg/mL (≈ 75.4 µM)
MIC [15]: 0.05 µg/mL (≈ 0.151 µM)
MIC (C. ramosum): 6.25 µg/mL (≈ 18.9 µM)
MIC [16]: 0.2 µg/mL (≈ 0.604 µM)
MIC (K. pneumoniae 1-220S): 0.05 µg/mL (≈ 0.151 µM)
MIC [17]: 3.13 µg/mL (≈ 9.45 µM)
MIC [18]: 0.05 µg/mL (≈ 0.151 µM)

CCn1cc(C(=O)O)c(=O)c2cc(F)c(N3CCNCC3)cc21 [norfloxacin]
activity against gram-positive bacteria (gram-positive bacteria; compared with gram-negative bacteria): fairly less than that against gram-negative bacteria
